Like-named read-outs stand apart in the source and are kept apart here.
Assays:
ALC1 macrodomain [1] = molecular target: T1, ALC1 macrodomain (Homo sapiens, UniProt Q86WJ1); experiment: Fluorescence polarization binding of fluorescein-labeled ADP-ribosylated histone peptides to the ALC1 macrodomain
T1 construct: A fragment encoding amino acids 636–878, corresponding to the macrodomain; 6xHis-SUMO (N, cleaved yes); made in house; host or cells: E. coli Rosetta2 (DE3)
T1 sequence (Q86WJ1 636-878): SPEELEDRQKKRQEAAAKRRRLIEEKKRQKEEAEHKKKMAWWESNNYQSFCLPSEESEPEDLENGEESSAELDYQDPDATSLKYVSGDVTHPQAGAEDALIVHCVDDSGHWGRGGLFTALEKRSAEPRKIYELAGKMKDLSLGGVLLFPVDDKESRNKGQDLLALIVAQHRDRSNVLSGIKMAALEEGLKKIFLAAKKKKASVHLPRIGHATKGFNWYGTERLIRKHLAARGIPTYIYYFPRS
Procedure: Each fluorescently-labeled H2B (unmodified, mono-, di-, tri-, and tetra-ADP-ribose at H2BS6) and H3 peptide (unmodified, mono-, di-, tri-, tetra-, or penta-ADP-ribose at H3S10) was diluted to 2 nM in a buffer containing 25 mM Tris, pH 7.5, 100 mM NaCl, 2 mM MgCl2, 0.001% Triton X100, and 1 mM DTT. Note, H3 elongates more efficiently than H2B and so the penta-ADP-ribosylated species could be isolated for this peptide. Peptide concentration was calculated via fluorescein extinction coefficient (A480 = 70,000). To analyze peptide:pan-ADP-ribose detection reagent (Af1521 macrodomain fused to rabbit Fc tag, MilliporeSigma) interaction, the pan-ADP-ribose detection reagent was titrated into each peptide to final concentrations ranging from 0 to 2000 nM (points represent 3 x dilutions starting from 2000 nM; a higher concentration of 4000 nM was also included for mono- and di-ADP-ribosylated peptides). To analyze peptide:ALC1-macrodomain interaction, the ALC1-macrodomain was titrated into each peptide to final concentrations ranging from 0 to 3000 nM (points represent 3 x dilutions starting from 3000 nM). Reactions were added to a black, flat-bottom 96-well plate (Corning Costar) and analyzed on a BioTek Cytation five imager equipped with a Green FP filter set (excitation: 485 nm, emission: 528 nm). […]

[2] = molecular target: T2, Af1521 macrodomain (fused to rabbit Fc tag) (Archaeoglobus fulgidus, UniProt O28751); experiment: Fluorescence polarization binding of fluorescein-labeled ADP-ribosylated histone peptides to the Af1521 macrodomain (pan-ADP-ribose detection reagent); conditions: fluorescein-labeled peptide 2 nM, reagent titrated 0-2000 nM (4000 nM for mono-/di-ADPr), 25 mM Tris pH 7.5, 100 mM NaCl, 2 mM MgCl2, 0.001% Triton X100, 1 mM DTT, one-site specific binding fit, n = 3, read-out: Kd,app
T2 construct: Af1521 macrodomain fused to rabbit Fc tag, MilliporeSigma; purchased MilliporeSigma
T2 sequence (O28751 1-192): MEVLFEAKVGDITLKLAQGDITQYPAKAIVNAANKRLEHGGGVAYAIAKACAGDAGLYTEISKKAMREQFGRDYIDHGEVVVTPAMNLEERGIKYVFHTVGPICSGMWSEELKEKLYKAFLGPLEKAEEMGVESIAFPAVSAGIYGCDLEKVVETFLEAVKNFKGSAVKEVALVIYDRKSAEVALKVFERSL

ALC1 = molecular target: T3, ALC1 (Homo sapiens, UniProt Q86WJ1); experiment: Restriction enzyme accessibility (REA) nucleosome remodeling assay, single substrate, recombinant ALC1; assay type: biochemical; conditions: for k, ALC1 remodeling rate constant on unmodified nucleosome in the presence of free ADP-ribosylated peptide: REA assay, 4 nM ALC1, unmodified nucleosome 20 nM, peptide 40 nM, 2 mM ATP, one-phase exponential decay fit, n = 3
T3 sequence (Q86WJ1 1-897): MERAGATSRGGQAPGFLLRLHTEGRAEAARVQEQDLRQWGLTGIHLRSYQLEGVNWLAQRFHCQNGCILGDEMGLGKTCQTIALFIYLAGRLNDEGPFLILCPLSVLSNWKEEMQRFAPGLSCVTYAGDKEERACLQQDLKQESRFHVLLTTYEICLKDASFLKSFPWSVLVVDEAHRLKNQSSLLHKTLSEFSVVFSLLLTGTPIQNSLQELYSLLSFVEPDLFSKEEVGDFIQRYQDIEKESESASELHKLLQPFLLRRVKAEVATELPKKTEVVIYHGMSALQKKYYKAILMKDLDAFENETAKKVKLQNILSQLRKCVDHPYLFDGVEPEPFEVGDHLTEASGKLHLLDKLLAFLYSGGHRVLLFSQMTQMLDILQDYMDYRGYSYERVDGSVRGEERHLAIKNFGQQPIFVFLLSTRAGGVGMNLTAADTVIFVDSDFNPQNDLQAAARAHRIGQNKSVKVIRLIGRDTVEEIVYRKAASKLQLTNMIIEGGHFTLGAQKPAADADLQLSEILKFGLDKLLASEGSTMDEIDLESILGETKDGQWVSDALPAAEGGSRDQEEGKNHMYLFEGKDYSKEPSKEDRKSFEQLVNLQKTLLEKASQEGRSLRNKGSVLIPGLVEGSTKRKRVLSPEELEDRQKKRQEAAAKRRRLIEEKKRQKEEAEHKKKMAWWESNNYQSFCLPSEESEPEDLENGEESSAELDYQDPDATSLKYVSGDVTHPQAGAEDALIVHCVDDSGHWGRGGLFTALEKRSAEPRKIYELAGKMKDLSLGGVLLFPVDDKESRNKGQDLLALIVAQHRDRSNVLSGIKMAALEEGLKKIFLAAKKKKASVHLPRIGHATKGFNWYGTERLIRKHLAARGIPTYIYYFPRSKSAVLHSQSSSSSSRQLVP
Procedure: REA assays and analysis were performed as previously described ([Dann et al., 2017]) with several modifications. Nucleosome remodeling reactions (25 μL) were carried out in REA Buffer (12 mM HEPES, pH 7.9, 4 mM Tris, pH 7.5, 60 mM KCl, 10 mM MgCl2, 10% glycerol, and 0.02% NP-40) including 1 μL of PstI (NEB, at 100,000 U/mL), 2 mM ATP (Sigma-Aldrich), and final concentrations of 4 nM ALC1 or 10 nM CHD4 and 20 nM of the desired nucleosome substrate. The reaction was incubated for 5 min prior to addition of chromatin remodeler to ensure that any trace amount of free DNA from the nucleosome assembly was digested prior to initiating the reaction. This is required to ensure that free DNA digestion can be assigned as background activity and is not interpreted as enzyme-dependent nucleosome remodeling in data processing. To each reaction, 37.5 μL of Quench Buffer (20 mM Tris, pH 7.5, 70 mM EDTA, pH 8, 2% SDS, 10% glycerol) was added at time points of 0, 3, 6, 18, 36, and 60 min. Samples were then deproteinized with 30 U/mL proteinase K (NEB) for 1 h at 37 °C. DNA purification was performed using the Qiagen PCR purification kit following manufacturer’s protocols. Purple Gel Loading Dye (6 X, NEB) was added to a final concentration of 1 X to the quenched reaction and samples were loaded onto a 5% TBE gel and run for 60 min at 150 volts in 0.5 X TBE Buffer (BioRad). Gels were stained with ethidium bromide and imaged on a BioRad ChemiDoc. Gel densitometry measurements were performed using ImageJ. For each lane, the total densitometry signal was calculated by adding the densitometry values corresponding to the PstI-digested species (lower band) and undigested species (upper band). The fraction unremodeled value for each lane was then calculated using the following formula: fraction unremodeled= signalundigested/signalundigested+ signaldigested […]

ALC1 macrodomain [3] = molecular target: T1, ALC1 macrodomain; conditions: free ADP-ribose molecules; ref Singh et al., 2017; cited from earlier work
Source text: We therefore chose to pursue ALC1 for our initial ADP-ribosylated histone peptide interaction studies. Nine fluorescently-labeled, ADP-ribosylated histone peptides (H2BS6ADPr1-4 and H3S10ADPr ...

In the case of CC(C)C[C@H](NC(=O)[C@H](CCC(N)=O)NC(=O)[C@H](CCCCN)NC(=O)[C@H](CCCNC(=N)N)NC(=O)[C@@H]1CCCN1C(=O)[C@H](C)NC(=O)[C@H](CCCCN)NC(=O)CNC(=O)CNC(=O)[C@@H](NC(=O)[C@H](CO[C@H]1O[C@H](COP(=O)(O)OP(=O)(O)OC[C@H]2O[C@@H](n3cnc4c(N)ncnc43)[C@H](O[C@H]3O[C@H](COP(=O)(O)OP(=O)(O)OC[C@H]4O[C@@H](n5cnc6c(N)ncnc65)[C@H](O[C@H]5O[C@H](COP(=O)(O)OP(=O)(O)OC[C@H]6O[C@@H](n7cnc8c(N)ncnc87)[C@H](O[C@H]7O[C@H](COP(=O)(O)OP(=O)(O)OC[C@H]8O[C@@H](n9cnc%10c(N)ncnc%109)[C@H](O[C@H]9O[C@H](COP(=O)(O)OP(=O)(O)OC[C@H]%10O[C@@H](n%11cnc%12c(N)ncnc%12%11)[C@H](O)[C@@H]%10O)[C@@H](O)[C@H]9O)[C@@H]8O)[C@@H](O)[C@H]7O)[C@@H]6O)[C@@H](O)[C@H]5O)[C@@H]4O)[C@@H](O)[C@H]3O)[C@@H]2O)[C@@H](O)[C@H]1O)NC(=O)[C@H](CCCCN)NC(=O)[C@H](CCCNC(=N)N)NC(=O)[C@H](C)NC(=O)[C@@H](NC(=O)[C@H](CCC(N)=O)NC(=O)[C@H](CCCCN)NC(=O)[C@@H](NC(=O)[C@H](CCCNC(=N)N)NC(=O)[C@H](C)NC(=O)c1ccc2c(c1)C(=O)OC21c2ccc(O)cc2Oc2cc(O)ccc21)[C@@H](C)O)[C@@H](C)O)[C@@H](C)O)C(N)=O [H3S10ADPr5 peptide], the Kd (ALC1 macrodomain [1]) is reported as 27.9 nM and the Kd [2] is reported as 42.5 nM.

In the case of “H2BS6ADPr4 peptide: H2B (1-16) peptide with tetra-ADP-ribose at S6; fluorescein-labeled in FP assays ({5(6)‑carboxyfluorescein}-PEPAKS(tetra‑ADP‑ribose)APAPKKGSKK-NH2)”, the “k, ALC1 remodeling rate constant on unmodified nucleosome in the presence of free ADP-ribosylated peptide” value (ALC1) is reported as 1.886e-05 min⁻¹.

For “H3S10ADPr4 peptide: H3 (1–20) peptide with tetra-ADP-ribose at S10; fluorescein-labeled in FP assays”, the “stimulation of ALC1-dependent remodeling of unmodified nucleosomes by the freely diffusing peptide” value (ALC1; ALC1, unmodified nucleosome 20 nM, peptide 10, 40 or 200 nM) was “unable to appreciably stimulate” and the “k, ALC1 remodeling rate constant on unmodified nucleosome in the presence of free ADP-ribosylated peptide” value (ALC1) was 8.323e-05 min⁻¹.

For tri-ADP-ribose, the Kd (ALC1 macrodomain [3]) is listed as about 10 nM.

— article PMC8683085, “Serine ADP-ribosylation marks nucleosomes for ALC1-dependent chromatin remodeling” (eLife, 2021)
